Measurements taken from ChEMBL document CHEMBL3580664, “Synthesis and Pharmacology of α/β(3)-Peptides Based on the Melanocortin Agonist Ac-His-dPhe-Arg-Trp-NH2 Sequence” (ACS Med Chem Lett, 2015).
Square brackets hold non-standard residues; d marks the D form. Peptide text beside a SMILES is read from it.

What was measured:
[1] = biological target: Melanocyte-stimulating hormone receptor (Mus musculus, UniProt Q01727); experiment: Agonist activity at mouse MC1 receptor expressed in HEK-293 cells assessed as cAMP response measured after 2 hrs incubation by cAMP Alphascreen assay; assay type: functional, cell-based, HEK293
Melanocyte-stimulating hormone receptor, sequence (Q01727 whole entry): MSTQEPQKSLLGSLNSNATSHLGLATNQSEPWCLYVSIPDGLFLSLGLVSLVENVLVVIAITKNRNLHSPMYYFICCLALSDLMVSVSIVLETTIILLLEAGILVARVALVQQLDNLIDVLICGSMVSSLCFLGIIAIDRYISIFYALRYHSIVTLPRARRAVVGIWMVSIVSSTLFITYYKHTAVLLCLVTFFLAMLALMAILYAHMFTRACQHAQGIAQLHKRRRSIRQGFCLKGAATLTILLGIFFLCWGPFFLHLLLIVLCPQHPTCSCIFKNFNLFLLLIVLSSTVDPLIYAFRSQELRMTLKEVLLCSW

[2] = biological target: Melanocortin receptor 3 (Mus musculus) (UniProt P33033); experiment: Agonist activity at mouse MC3 receptor expressed in HEK-293 cells assessed as cAMP response measured at 100 uM after 2 hrs incubation by cAMP Alphascreen assay relative to control; assay type: functional, cell-based; conditions: HEK293
Melanocortin receptor 3 (Mus musculus), sequence (P33033 whole entry): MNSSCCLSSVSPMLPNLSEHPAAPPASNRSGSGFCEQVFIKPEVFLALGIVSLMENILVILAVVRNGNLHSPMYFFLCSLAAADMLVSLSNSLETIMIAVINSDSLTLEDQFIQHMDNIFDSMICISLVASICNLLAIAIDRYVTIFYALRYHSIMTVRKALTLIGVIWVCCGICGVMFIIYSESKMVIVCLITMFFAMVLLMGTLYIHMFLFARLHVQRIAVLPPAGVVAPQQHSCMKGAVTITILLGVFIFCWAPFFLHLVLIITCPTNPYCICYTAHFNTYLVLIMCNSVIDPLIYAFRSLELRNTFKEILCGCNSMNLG

[3] = biological target: Melanocortin receptor 4 (Mus musculus) (UniProt P56450); experiment: Agonist activity at mouse MC4 receptor expressed in HEK-293 cells assessed as cAMP response measured at 100 uM after 2 hrs incubation by cAMP Alphascreen assay relative to control; assay type: functional, cell-based; conditions: HEK293
Melanocortin receptor 4 (Mus musculus), sequence (P56450 whole entry): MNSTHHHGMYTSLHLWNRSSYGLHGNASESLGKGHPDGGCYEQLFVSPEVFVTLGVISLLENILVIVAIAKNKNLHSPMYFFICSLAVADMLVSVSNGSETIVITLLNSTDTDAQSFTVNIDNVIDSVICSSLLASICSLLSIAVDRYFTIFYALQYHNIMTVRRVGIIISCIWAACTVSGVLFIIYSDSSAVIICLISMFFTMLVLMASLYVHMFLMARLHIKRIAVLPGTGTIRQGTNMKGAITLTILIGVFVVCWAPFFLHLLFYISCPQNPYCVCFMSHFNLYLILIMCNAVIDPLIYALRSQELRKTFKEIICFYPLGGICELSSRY

[4] = biological target: Melanocortin receptor 5 (Mus musculus) (UniProt P41149); experiment: Agonist activity at mouse MC5 receptor expressed in HEK-293 cells assessed as cAMP response measured at 100 uM after 2 hrs incubation by cAMP Alphascreen assay relative to control; assay type: functional, cell-based; conditions: HEK293
Melanocortin receptor 5 (Mus musculus), sequence (P41149 whole entry): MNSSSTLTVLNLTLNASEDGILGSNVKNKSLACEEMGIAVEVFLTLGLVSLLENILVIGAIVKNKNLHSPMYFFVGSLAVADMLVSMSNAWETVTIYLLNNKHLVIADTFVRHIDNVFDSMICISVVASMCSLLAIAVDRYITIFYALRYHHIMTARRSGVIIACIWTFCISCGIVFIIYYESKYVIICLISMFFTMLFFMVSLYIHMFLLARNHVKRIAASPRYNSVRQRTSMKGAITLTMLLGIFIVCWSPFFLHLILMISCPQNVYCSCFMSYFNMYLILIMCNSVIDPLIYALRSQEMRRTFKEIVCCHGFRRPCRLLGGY

[5] = biological target: Melanocyte-stimulating hormone receptor (Mus musculus) (UniProt Q01727); experiment: Agonist activity at mouse MC1 receptor expressed in HEK-293 cells assessed as cAMP response measured at 100 uM after 2 hrs incubation by cAMP Alphascreen assay relative to control; assay type: functional, cell-based; conditions: HEK293
Melanocyte-stimulating hormone receptor (Mus musculus), sequence (Q01727 whole entry, looked up): as the sequence (Q01727 whole entry) above

Melanocortin receptor 3 = Melanocortin receptor 3 (Mus musculus, UniProt P33033); experiment: Agonist activity at mouse MC3 receptor expressed in HEK-293 cells assessed as cAMP response measured after 2 hrs incubation by cAMP Alphascreen assay; assay type: functional, cell-based, HEK293
Melanocortin receptor 3, sequence (P33033 whole entry): as the sequence (P33033 whole entry) above

Melanocortin receptor 4 = Melanocortin receptor 4 (Mus musculus, UniProt P56450); experiment: Agonist activity at mouse MC4 receptor expressed in HEK-293 cells assessed as cAMP response measured after 2 hrs incubation by cAMP Alphascreen assay; assay type: functional, cell-based, HEK293
Melanocortin receptor 4, sequence (P56450 whole entry): as the sequence (P56450 whole entry) above

Melanocortin receptor 5 = Melanocortin receptor 5 (Mus musculus, UniProt P41149); experiment: Agonist activity at mouse MC5 receptor expressed in HEK-293 cells assessed as cAMP response measured after 2 hrs incubation by cAMP Alphascreen assay; assay type: functional, cell-based, HEK293
Melanocortin receptor 5, sequence (P41149 whole entry): as the sequence (P41149 whole entry) above

Mus musculus = species on record: Mus musculus; experiment: Selectivity ratio for mouse MC3 receptor over mouse MC4 receptor

SMILES | EC50 [1] | Activity [2] | Activity [3] | Activity [4] | Activity [5] | EC50 (Melanocortin receptor 3) | EC50 (Melanocortin receptor 4) | EC50 (Melanocortin receptor 5) | Selectivity ratio (Mus musculus)
CC(=O)N[C@H](Cc1ccccc1)C(=O)N[C@@H](CCCN=C(N)N)C(=O)N[C@@H](Cc1c[nH]c2ccccc12)C(N)=O (Ac-[dF]-Arg-Trp-NH2) | 10000 nM | 40% | 70% | 70% |  |  |  |  | 
CC(=O)N[C@@H](Cc1ccccc1)C(=O)N[C@@H](CCCN=C(N)N)C(=O)N[C@@H](Cc1c[nH]c2ccccc12)C(N)=O (Ac-Phe-Arg-Trp-NH2) |  |  |  |  | 60% |  |  |  | 
CC(=O)N[C@@H](Cc1c[nH]cn1)C(=O)N[C@H](Cc1ccccc1)C(=O)N[C@@H](CCCNC(=N)N)C(=O)N[C@H](CC(N)=O)Cc1c[nH]c2ccccc12 | 33 nM |  |  |  |  | 415 nM | 12 nM | 5.6 nM | 35
CC(=O)N[C@@H](Cc1c[nH]cn1)C(=O)N[C@@H](CC(=O)N[C@@H](CCCNC(=N)N)C(=O)N[C@@H](Cc1c[nH]c2ccccc12)C(N)=O)Cc1ccccc1 | 7030 nM | 50% | 60% | 60% |  |  |  |  | 
CC(=O)N[C@@H](Cc1c[nH]cn1)C(=O)N[C@H](Cc1ccccc1)C(=O)N[C@@H](CCCNC(=N)N)CC(=O)N[C@@H](Cc1c[nH]c2ccccc12)C(N)=O | 37 nM |  |  |  |  | 854 nM | 70 nM | 73 nM | 12
CC(=O)N[C@@H](Cc1cnc[nH]1)C(=O)N[C@H](Cc1ccccc1)C(=O)N[C@@H](CCCN=C(N)N)C(=O)N[C@@H](Cc1c[nH]c2ccccc12)C(N)=O |  |  |  |  |  |  | 5.6 nM |  | 
CC(=O)N[C@@H](Cc1ccccc1)C(=O)N[C@@H](CCCNC(=N)N)C(=O)N[C@@H](Cc1c[nH]c2ccccc12)C(N)=O (Ac-Phe-Arg-Trp-NH2) |  |  |  |  |  | > 100000 nM | > 100000 nM | > 100000 nM | 
CC(=O)N[C@@H](Cc1c[nH]cn1)C(=O)N[C@H](CC(=O)N[C@@H](CCCNC(=N)N)C(=O)N[C@@H](Cc1c[nH]c2ccccc12)C(N)=O)Cc1ccccc1 | 6580 nM | 70% |  |  |  |  | 7680 nM | 4810 nM | 
CC(=O)N[C@@H](Cc1c[nH]cn1)C(=O)N[C@@H](Cc1ccccc1)C(=O)N[C@@H](CCCN=C(N)N)C(=O)N[C@@H](Cc1c[nH]c2ccccc12)C(N)=O |  |  |  |  |  |  | 1210 nM | 70 nM | 
